Our source for the IC50 values is patent US20070117839A1, “Two cyclic cinnamide compound” (Eisai R&D Management Co., Ltd., priority 2005, published 2007).

Each structure is given as a SMILES string.

Broadly, the IC50 is the concentration that gives 50% inhibition.

In this experiment the test system is Aβ 42 Production. The experiment in a line: Quantification of Aβ peptide in culture of neurons from rat fetus brain (Aβ ELISA). The settings on record: Neuron, 72 h; rat primary neuronal culture (embryonic day 18 Wistar rat cerebral cortex), cultured three days after addition of the compound, Aβx-42 ELISA of the medium; read-out: Activity for reducing Aβ 42 Production IC50. Type of experiment: cell-based. Here is the method: Quantification of Aβ Peptide in Culture of Neurons from Rat Fetus Brain
(1) Rat Primary Neuronal Culture
Primary neuronal cultures were prepared from the cerebral cortex of embryonic day 18 Wistar rats (Charles River Japan, Yokohama, Japan). Specifically, the embryos were aseptically removed from pregnant rats under ether anesthesia. The brain was isolated from the embryo and immersed in an ice-cold L-15 medium (Invitrogen Corp. Cat #11415-064, Carlsbad, Calif., USA, or SIGMA L1518, for example). The cerebral cortex was collected from the isolated brain under a stereoscopic microscope. The cerebral cortex fragments collected were enzymatically treated in an enzyme solution containing 0.25% trypsin (Invitrogen Corp. Cat #15050-065, Carlsbad, Calif., USA) and 0.01% DNase (Sigma D5025, St. Louis, Mo., USA) at 37° C. for 30 minutes to disperse the cells. Here, the enzymatic reaction was stopped by adding inactivated horse serum to the solution. The enzymatically treated solution was centrifuged at 1,500 rpm for five minutes to remove the supernatant. 5 to 10 mL of a medium was added to the resulting cell mass. Neurobasal medium (Invitrogen Corp. Cat #21103-049, Carlsbad, Calif., USA) supplemented with 2% B27 supplement (Invitrogen Corp. Cat #17504-044, Carlsbad, Calif., USA), 25 μM 2-mercaptoethanol (2-ME, WAKO Cat #139-06861, Osaka, Japan), 0.5 mM L-glutamine (Invitrogen Corp. Cat #25030-081, Carlsbad, Calif., USA), and Antibiotics-Antimycotics (Invitrogen Corp. Cat #15240-062, Carlsbad, Calif., USA) was used as the medium (Neurobasal/B27/2-ME). However, the above Neurobasal medium not supplemented with 2-ME (Neurobasal/B27) was used for the assay. The cells were redispersed by mild pipetting of the cell mass to which the medium was added. The cell dispersion was filtered through a 40-μm nylon mesh (Cell Strainer, Cat #35-2340, Becton Dickinson Labware, Franklin Lakes, N.J., USA) to remove the remaining cell mass, and thus a neuronal cell suspension was obtained. The neuronal cell suspension was diluted with the medium and then plated in a volume of 100 μl/well at an initial cell density of 5×10^5 cells/cm^2 in a 96-well polystyrene culture plate pre-coated with poly-L or D-lysine (Falcon Cat #35-3075, Becton Dickinson Labware, Franklin Lakes, N.J., USA coated with poly-L-lysine using the method shown below, or BIOCOAT™ cell environments Poly-D-lysine cell ware 96-well plate, Cat #35-6461, Becton Dickinson Labware, Franklin Lakes, N.J., USA). Poly-L-lysine coating was carried out as follows. 100 μg/ml of a poly-L-lysine (SIGMA P2636, St. Louis, Mo., USA) solution was aseptically prepared with a 0.15 M borate buffer (pH 8.5). 100 μl/well of the solution was added to the 96-well polystyrene culture plate and incubated at room temperature for one or more hours or at 4° C. overnight or longer. The coated 96-well polystyrene culture plate was washed with sterile water four or more times, and then dried or rinsed with, for example, sterile PBS or medium, and used for cell plating. The plated cells were cultured in the culture plate at 37° C. in 5% CO2-95% air for one day. Then, the total amount of the medium was replaced with a fresh Neurobasal/B27/2-ME medium, and then the cells were cultured for further three days.
The drug was added to the culture plate on Day 4 of culture as follows. The total amount of the medium was removed from the wells, and 180 μl/well of Neurobasal medium not containing 2-ME and containing 2% B-27 (Neurobasal/B27) was added thereto. A solution of the test compound in dimethyl sulfoxide (hereinafter abbreviated as DMSO) was diluted with Neurobasal/B27 at 10-fold of the final concentration. 20 μl/well of the dilution was added to and sufficiently mixed with the medium. The final DMSO concentration was 1% or less. Only DMSO was added to the control group.
The cells were cultured for three days after addition of the compound, and the total amount of the medium was collected. […]
(In an ELISA, binding on a coated surface is turned into a signal by an enzyme label.)
`COc1cc(/C=C2\CC[C@H]3CC[C@@H](c4c(F)cc(F)cc4F)N3C2=O)ccc1-n1cnc(C)c1` [Example 89, (3S,8aS)-6-{1-[3-methoxy-4-(4-methyl-1H-imidazol-1-yl)phenyl]-(E)-methylidene}-3-(2,4,6-trifluorophenyl)hexahydroindolizin-5-one]: the IC50 came to 88 nM.

`COc1cc(/C=C2\CC[C@H]3CCC[C@@H](c4ccc(F)c(F)c4)N3C2=O)ccc1-n1cnc(C)c1` [Example 90, (6S,9aR)-6-(3,4-difluorophenyl)-3-{1-[3-methoxy-4-(4-methyl-1H-imidazol-1-yl)phenyl]-(E)-methylidene}octahydroquinolizin-4-one]: the IC50 amounted to 39 nM.

For `COc1cc(/C=C2\CC[C@H]3CCC[C@@H](c4cc(F)c(F)c(F)c4)N3C2=O)ccc1-n1cnc(C)c1` [Example 91, (6S,9aR)-6-(3,4,5-trifluorophenyl)-3-{1-[3-methoxy-4-(4-methyl-1H-imidazol-1-yl)phenyl]-(E)-methylidene}octahydroquinolizin-4-one], the concentration for half-maximal inhibition (IC50) came to 33 nM.

Take `COc1cc(/C=C2\CC[C@H]3CCC[C@@H](c4ccc(Cl)cc4)N3C2=O)ccc1-n1cnc(C)c1` [Example 92, (6S,9aR)-6-(4-chlorophenyl)-3-{1-[3-methoxy-4-(4-methyl-1H-imidazol-1-yl)phenyl]-(E)-methylidene}octahydroquinolizin-4-one]: the IC50 was 40 nM.

On to `COc1cc(/C=C2\CC[C@H]3COC[C@@H](c4ccc(F)c(F)c4)N3C2=O)ccc1-n1cnc(C)c1` [Example 95, (4R,9aS)-4-(3,4-difluorophenyl)-7-{1-[3-methoxy-4-(4-methyl-1H-imidazol-1-yl)phenyl]-(E)-methylidene}hexahydropyrido[2,1-c][1,4]oxazin-6-one], for which the half-maximal inhibitory concentration (IC50) is 87 nM.

For the compound `COc1cc(/C=C2\CC[C@H]3COC[C@@H](c4ccc(Cl)cc4)N3C2=O)ccc1-n1cnc(C)c1` [Example 96, (4R,9aS)-4-(4-chlorophenyl)-7-{1-[3-methoxy-4-(4-methyl-1H-imidazol-1-yl)phenyl]-(E)-methylidene}hexahydropyrido[2,1-c][1,4]oxazin-6-one], the IC50 came out at 65 nM.

On to `COc1cc(/C=C2\CC[C@H]3CN(C)C[C@@H](c4cc(F)c(F)c(F)c4)N3C2=O)ccc1-n1cnc(C)c1` [Example 110, (4R,9aS)-7-{1-[3-methoxy-4-(4-methyl-1H-imidazol-1-yl)phenyl]-(E)-methylidene}-2-methyl-4-(3,4,5-trifluorophenyl)octahydropyrido[1,2-a]pyrazin-6-one], for which the IC50 came out at 29 nM.
